Measurements published in ChEMBL document CHEMBL5576093, “Design, synthesis and evaluation of bioactivity of peptidomimetics based on chloroalkene dipeptide isosteres” (Bioorg Med Chem, 2024).

Columns and labels:
[1] = molecular target: Amyloid-beta precursor protein (Homo sapiens) (UniProt P05067); assay: Inhibition of amyloid-beta (1 to 42 residues) (unknown origin) aggregation at 20 uM incubated for 6 hrs by ThT fluorescence based spectrofluorimetric analysis relative to control
[2] = molecular target: Amyloid-beta precursor protein (Homo sapiens) (UniProt P05067); assay: Inhibition of amyloid-beta (1 to 42 residues) (unknown origin) aggregation at 10 uM incubated for 6 hrs by ThT fluorescence based spectrofluorimetric analysis relative to control
[3] = molecular target: C-X-C chemokine receptor type 4 (Homo sapiens, UniProt P61073); assay: Antagonist activity at CXCR4 (unknown origin); type: functional
Chain of C-X-C chemokine receptor type 4 (P61073 whole entry): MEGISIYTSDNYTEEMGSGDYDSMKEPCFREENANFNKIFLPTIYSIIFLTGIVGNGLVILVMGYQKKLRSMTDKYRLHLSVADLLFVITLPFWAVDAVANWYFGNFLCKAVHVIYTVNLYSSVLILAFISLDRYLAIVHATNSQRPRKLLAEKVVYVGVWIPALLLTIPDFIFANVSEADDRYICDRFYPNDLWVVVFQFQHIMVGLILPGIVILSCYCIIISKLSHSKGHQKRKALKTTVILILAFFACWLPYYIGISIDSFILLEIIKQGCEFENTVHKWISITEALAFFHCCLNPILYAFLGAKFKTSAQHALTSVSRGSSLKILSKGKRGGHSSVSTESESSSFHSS

Chain of Amyloid-beta precursor protein (Homo sapiens) (P05067 whole entry, the tested form may be a part): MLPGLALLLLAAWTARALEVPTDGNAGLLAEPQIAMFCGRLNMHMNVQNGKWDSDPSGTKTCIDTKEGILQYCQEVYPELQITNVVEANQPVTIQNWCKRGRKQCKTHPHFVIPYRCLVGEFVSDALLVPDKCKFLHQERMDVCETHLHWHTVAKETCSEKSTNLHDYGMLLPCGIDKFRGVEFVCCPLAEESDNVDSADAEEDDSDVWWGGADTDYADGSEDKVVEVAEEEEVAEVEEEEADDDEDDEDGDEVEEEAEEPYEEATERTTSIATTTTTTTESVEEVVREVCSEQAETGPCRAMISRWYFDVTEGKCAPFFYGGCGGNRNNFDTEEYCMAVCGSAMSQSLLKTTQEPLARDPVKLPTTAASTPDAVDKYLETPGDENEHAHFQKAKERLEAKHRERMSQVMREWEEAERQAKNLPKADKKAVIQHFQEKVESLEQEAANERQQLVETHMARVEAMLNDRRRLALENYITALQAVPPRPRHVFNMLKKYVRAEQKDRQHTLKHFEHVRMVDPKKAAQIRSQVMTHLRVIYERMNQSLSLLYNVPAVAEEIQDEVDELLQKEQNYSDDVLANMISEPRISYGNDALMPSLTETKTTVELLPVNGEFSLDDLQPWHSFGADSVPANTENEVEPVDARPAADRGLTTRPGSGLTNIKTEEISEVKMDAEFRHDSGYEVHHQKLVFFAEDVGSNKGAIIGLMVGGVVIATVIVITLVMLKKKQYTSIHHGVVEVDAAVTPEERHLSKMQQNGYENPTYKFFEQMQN

| SMILES | inhibition [1] [%] | inhibition [2] [%] | EC50 [3] [nM] |
| --- | --- | --- | --- |
| CC(C)C[C@@H]1NC(=O)[C@@H](CCCCN)NC(=O)[C@@H](Cc2ccccc2)NC(=O)[C@H](Cc2ccccc2)NC(=O)[C@@H](C(C)C)NC1=O | 20.3 | 77.9 |  |
| CC(C)C[C@H](NC(=O)[C@@H](N)CCCCN)C(=O)N[C@H](C(=O)/C(Cl)=C/N[C@@H](Cc1ccccc1)C(=O)N[C@@H](Cc1ccccc1)C(=O)O)C(C)C | 79.6 |  |  |
| CC(C)C[C@H](NC(=O)[C@@H](N)CCCCN)C(=O)N[C@H](C(=O)N[C@@H](Cc1ccccc1)C(=O)N[C@@H](Cc1ccccc1)C(=O)O)C(C)C | 90.2 |  |  |
| N=C(N)NCCC[C@@H]1NC(=O)[C@@H](Cc2ccc(O)cc2)NC(=O)CNC(=O)[C@H](Cc2ccc3ccccc3c2)NC(=O)[C@H](CCCNC(=N)N)/C=C/1F |  |  | 1780 |
| CC(C)C[C@H]1NC(=O)[C@H](CCCCN)NC(=O)[C@H](Cc2ccccc2)NC(=O)[C@@H](Cc2ccccc2)N/C=C(\Cl)C(=O)[C@H](C(C)C)NC1=O | 24.6 | 30.1 |  |
| N=C(N)NCCC[C@H]1/C=C/[C@@H](CCCNC(=N)N)C(=O)N[C@@H](Cc2ccc3ccccc3c2)C(=O)NCC(=O)N[C@H](Cc2ccc(O)cc2)C(=O)N1 |  |  | 1460 |
| O=c1c(O)c(-c2ccc(O)cc2O)oc2cc(O)cc(O)c12 | 36 |  |  |
